By IC50 is commonly meant the concentration that inhibits the measured activity by half.

In this assay the test system is P. falciparum 3D7 growth, pLDH absorbance. As to the kind of experiment: P. falciparum 3D7 growth inhibition, dose response, strain 3D7 (AID 2305).

`Cc1cccc2[nH]c(-c3ccc(-c4cccc(CN5CCCCC5)c4)s3)nc12` displayed a 50% inhibitory concentration (IC50) of 0.47 µM.
With `COc1ccc2nccc([C@@H](O)CN3CCC(NCc4nc5cc(F)ccc5o4)CC3)c2c1` the figure was 0.15 µM; with `Cc1c(C)n(C2CCCCC2)c2ncnc(OC3CCN(CC(=O)N4CCCC4)CC3)c12`, 1.45 µM; with `CC(=O)N(Cc1nc(-c2cc(Cl)c(Cl)s2)cs1)c1c(C)cccc1C`, 0.33 µM.
The value for `CN(C)CCCn1c(C(=O)OC(c2ccccc2)c2ccccc2)cc2cc(OCc3ccccc3)ccc21` was 0.2 µM; that for `O=C(Nc1ccsc1)Nc1cccc(-c2ccc(-c3nc4ccc(C(F)(F)F)cc4[nH]3)cc2)c1` was 0.35 µM.
The value for `Oc1ccc(CCNc2nc(NCc3ccccc3Oc3ccc(C(F)(F)F)cc3)nc(N3CCNCC3)n2)cc1` was 1.16 µM; that for `NC1=NC(c2ccccc2)N(OCc2ccccc2)C(N)=N1` (configuration not stated) was 0.04 µM; that for `CCCCCC(C)C(C)c1cc(O)c2c3c(c(=O)oc2c1)CN(Cc1ccccc1)CC3` (configuration not stated) was 0.6 µM.
`FC(F)(F)c1ccc2nc(-c3ccc(-c4ccc(CN5CCN(c6cnccn6)CC5)cc4)s3)[nH]c2c1` yielded an IC50 of 0.65 µM.
With `COc1ccc2nccc(NN=Cc3cccc(C)n3)c2c1`, the IC50 stood at 0.76 µM.
In the case of `CS(=O)(=O)CCNCc1ccc(-c2cc3c(Nc4ccc(OCc5cccc(F)c5)c(Cl)c4)ncnc3s2)[nH]1`, the IC50 turned out to be 0.84 µM.
`CC(C(=O)OCCOCn1cnc2c(=O)[nH]c(N)nc21)N(C)C(=O)OC(C)(C)C` (configuration not stated) gave an IC50 of 1 µM. This IC50 and that of the compound before are within 1.5-fold of each other.
The value for `CC(C)(Oc1c(C2CCN(CCCCNC(=O)c3ccc(-c4ccc(Cl)cc4)cc3)CC2)ccc2c1CCCC2)C(N)=O` was 1.09 µM.
As to `C=CCn1c(=N)c(C(=O)NC2CCCCC2)cc2c(=O)n3cccc(C)c3nc21`, the IC50 came out at 1.04 µM.
The value for `CN(C)c1ccc(-c2ccc(C(=O)NC3CCN(Cc4ccccc4)CC3)s2)cc1` was 1.05 µM; that for `Cc1ccc(NC(=O)c2cc([N+](=O)[O-])ccc2NCc2cccnc2)cc1Cl` was 1.12 µM.
In the case of `Cc1cccc2[nH]c(=O)c([N+](=O)[O-])c(O)c12`, the IC50 came to 0.91 µM.
With `Nc1c2c(nc3ccc(NC(=O)CCCCCc4ccccc4)cc13)CCCC2` the figure was 0.44 µM; with `O=C(c1cc(C(=O)NCc2ccc(Cl)cc2)c(=O)n(Cc2ccc(Cl)cc2)c1)c1cc(Cl)ccc1O`, 1.4 µM; with `CC(C)Cc1c(O)nc(SCCN2CCOCC2)[nH]c1=O`, 1.26 µM.
With `O=C(Nc1ccc2c(c1)CCC2)c1nc(N2CCN(c3ccncc3)CC2)ccc1Cl` the figure was 1.38 µM.
As to `Cc1cccc2[nH]c(-c3ccc(-c4ccc(NC(=O)NCc5cccc(F)c5)cc4)cc3)nc12`, the IC50 stood at 1.3 µM.
Compound `OC(CN1CCN(C2CCCCC2)CC1)Cn1c2ccccc2c2cc(Br)ccc21` (configuration not stated) registered an IC50 of 0.86 µM.
The value for `COc1cccc(NC(=O)[C@H](C(C)C)n2c(=O)[nH]c3ccccc3c2=O)c1` was 0.27 µM; that for `C[C@H](Cc1ccc(OCCCCCCOc2ccc(C[C@@H](C)NC(=O)[C@H](O)c3cccc(Cl)c3)cc2)cc1)NC[C@H](O)c1cccc(Cl)c1` was 0.38 µM; that for `CC(=O)Nc1ccc(CN(Cc2ccc(OC(C)(C)C)cc2)Cc2ccc3c(c2)OCCO3)cc1` was 0.93 µM.
Compound `CCCCCCCN(Cc1ccc(OC(C)(C)C(=O)OCC)cc1)C(=O)Nc1ccc(Cl)cc1OCC` registered an IC50 of 0.82 µM.
`CCCN(CCC)C(=O)c1cc(C(=O)N[C@@H](Cc2ccccc2)[C@H](O)CNCc2cccc(C(F)(F)F)c2)cc(N2CCCCS2(=O)=O)c1` displayed an IC50 of 0.88 µM.
With `O=C(NCCCCN1CCC(c2cccc3ccccc23)CC1)c1ccc(-c2ccc(C(F)(F)F)cn2)cc1` the figure was 0.87 µM; with `CC=CCON1C(N)=NC(N)=NC1(C)C`, 0.03 µM.
The value for `O=C(OCc1ccccn1)c1nc2ccccc2[nH]1` was 0.79 µM.
With `Oc1ccc2ccccc2c1C=NNc1nc(Nc2ccccc2)nc(Nc2ccccc2)n1` the figure was 0.67 µM.
Consider `CC(C)(C)c1ccc(Cn2c(=N)n(CC(=O)c3ccc(-c4ccccc4)cc3)c3ccccc32)cc1`, for which the IC50 turned out to be 0.16 µM. This IC50 is about 4.2-fold lower than that of the compound before.
For `CN(Cc1cc(C(F)(F)F)cc(C(F)(F)F)c1)C(=O)C(Cc1ccc(F)cc1)C1CCCNC1` (configuration not stated), the IC50 amounted to 1.54 µM.
With `CCc1nc(N)nc(N)c1-c1ccc(C(C)(C)C)cc1` the figure was 0.23 µM; with `c1ccc2cc(CNCCCN3CCN(CCCNCc4ccc5ccccc5c4)CC3)ccc2c1`, 0.55 µM.
For `CCC(=O)c1cc(C(=O)NCCc2cccc(OC)c2)ccc1OC`, the IC50 came out at 0.9 µM.
The value for `Cc1nc(-c2cccc(C(=O)NC3CCC(CCN4CCc5ccc(-c6cccnc6)cc5CC4)CC3)c2)no1` (configuration not stated) was 0.76 µM; that for `CCCN(CCC)C(=O)c1cc(-c2cccc(C)c2)nc2ccccc12` was 1.06 µM; that for `Nc1cccc(CNCc2cccc(-c3ccc(-c4nc5ccccc5[nH]4)cc3)c2)c1` was 0.42 µM.
`Cc1ccccc1N1CCN(c2ccc(C(=O)Nc3ccccc3)cc2)CC1` yielded an IC50 of 0.72 µM.
`O=[N+]([O-])c1ccc(-c2ccc(C=NNc3nc(Nc4ccccc4)nc(Nc4ccccc4)n3)o2)cc1` came in with an IC50 of 1.43 µM.
On to `O=c1[nH]c2ccc3[nH]cccc3c2c1C=Nc1ccc(Cn2ccnc2)cc1`, for which the IC50 is 0.66 µM. This IC50 is about 2.2-fold lower than that of the compound before.
The value for `N=C(N)c1ccc(-c2cc(-c3cccc(C(=N)N)c3)on2)cc1` was 0.01 µM.
`CCC[C@@H]([C@@H](CC1CCCCC1)C(=O)N[C@H](C(=O)Nc1ccccn1)[C@H](C)CC)N(O)C=O`: the IC50 stood at 0.53 µM. This IC50 is about 53-fold higher than that of the compound before.
With `CCC(CO)NCC(O)Cn1c2ccc(Br)cc2c2cc(Br)ccc21` (configuration not stated) the figure was 0.78 µM; with `CCCCCC(C)(C)NC[C@@H](O)[C@H](Cc1ccccc1)NC(=O)c1cc(NCC)cc(N2CCCC2=O)c1`, 0.67 µM.
The value for `Cc1ccc(Nc2nc(C)cc(N3CCN(CCc4ccccc4)CC3)n2)cc1` was 0.97 µM.
The value for `CON(C)C(=O)[C@@H](CCCCNC(=O)OCc1ccccc1)NC(=O)OC(C)(C)C` was 0.19 µM; that for `CCCN(Cc1ccc(OCC)cc1)Cc1cc(=O)c2cc(Cl)ccc2[nH]1` was 1.26 µM; that for `N#Cc1ccc2c(c1)CCN(CCC1CCC(NC(=O)Nc3ccnc4ccccc34)CC1)C2` (configuration not stated) was 0.38 µM.
Compound `CCOC(=O)c1ccc(CC(C)NCC(O)c2cccc(C(F)(F)F)c2)cc1` (configuration not stated) showed an IC50 of 0.22 µM.
`CN1CCC(NCc2ccc(-c3ccc(S(=O)(=O)NCc4ccccc4)c(F)c3)cc2)CC1` came in with an IC50 of 0.61 µM.
With `Cc1c(S(=O)(=O)Nc2ccc3nccc(N4C[C@@H](C)N[C@@H](C)C4)c3c2)sc2ccc(Cl)cc12` the figure was 1.02 µM.
The compound `CN1CCC(Oc2cc(NC(=O)Nc3ccc(-c4ccncc4)c(Cl)c3)ccc2Cl)CC1` came in with an IC50 of 0.53 µM.
With `O=C(Cc1ccc(F)cc1)NC1CCN(c2ccnc3cc(Cl)ccc23)C1` (configuration not stated) the figure was 0.48 µM.
The value for `Cc1ccc(CC(C)NCC(O)c2cccc(C(F)(F)F)c2)c(C)c1` (configuration not stated) was 0.7 µM; that for `Cc1sc2ccc(Cl)cc2c1S(=O)(=O)Nc1ccc2nccc(N3C[C@@H](C)N[C@@H](C)C3)c2c1` was 0.11 µM; that for `Cc1cc2ncc(C(N)=O)c(Nc3ccc(N4CCOCC4)cc3)c2cc1S(C)(=O)=O` was 0.67 µM.
With `CCCNCc1ccc(-c2ccc(CN(CC3CCCO3)C(=O)COc3ccccc3Cl)cc2)nc1` (configuration not stated) the figure was 1.18 µM.
`CN(C)c1ccc(-c2cscc2C(=O)NC2CCCN(Cc3cccnc3)C2)cc1` (configuration not stated) yielded an IC50 of 0.86 µM.
Regarding `CNCc1ccc(-c2cccc(CNCc3ccc(-c4ccccc4)cc3)c2)c(C(=O)OC)c1`, the IC50 came out at 0.98 µM.
The value for `C=CCOc1ccc(Cc2cnc(N)nc2N)cc1CCC` was 1.02 µM.
In turn, `Cn1c(C2C[C@H]3CC[C@H](C2)N3CC2CCC(NC(=O)/C=C/c3ccc(Cl)c(Cl)c3)CC2)nc2ccccc21` (some centres not stated) returned an IC50 of 0.56 µM. This IC50 is about 1.8-fold lower than that of the compound before.
With `CC(CN1CCN(C)CC1)C(=O)Nc1ccc(-c2csc(-c3nc4ccccc4[nH]3)c2)cc1` (configuration not stated) the figure was 0.84 µM; with `COc1ccc2nccc([C@@H](O)CN3CCC(NCc4cc5c(F)ccc(F)c5[nH]4)CC3)c2n1`, 0.7 µM.
With `CCOC(=O)c1cc(C(=O)OC)c2ccccn12` the figure was 0.22 µM.
With `N#Cc1ccc(N[C@@H](CC2CCCCC2)C(=O)N[C@@H]2CCCc3ccccc32)c2ccccc12` the figure was 0.73 µM; with `CO/C(=C\C=C\c1cc2cc(Cl)c(Cl)cc2[nH]1)C(=O)NCCCN1CCC(c2ccccc2)CC1`, 0.91 µM.
For the compound `COc1ccc(NC(=S)NC(NC(=O)CF)C(Cl)(Cl)Cl)cc1[N+](=O)[O-]` (configuration not stated), the IC50 turned out to be 0.48 µM.
The value for `NC1CCCN(Cc2ccc(-c3ccc(-c4nc5ccc(F)cc5[nH]4)s3)cc2)C1` (configuration not stated) was 0.18 µM.
The value for `CC[C@H]1CN2CC[C@@H]1C[C@H]2[C@H](O)c1cc(-c2ccc(F)cc2)nc2ccc(O)cc12` was 0.14 µM.
`Oc1c(Cl)cc(Nc2nccc(Nc3ccc(Oc4ccccc4)cc3)n2)cc1Cl`: the IC50 stood at 0.79 µM.
The value for `COc1ccc(-c2ccc(CNCc3ccccc3)cc2)cc1S(=O)(=O)NCCN1CCCC1` was 0.73 µM.
`COc1ccc(Cl)cc1NC(=O)Nc1ccc2c(c1)CCN(C1CCC1)CC2` had an IC50 of 0.81 µM.
As to `Cc1ccc(C(=O)Nc2cccc([N+](=O)[O-])c2)cc1S(=O)(=O)N1CC(C)CC(C)C1` (configuration not stated), the IC50 stood at 0.79 µM.
With `O=C(Cc1cnc[nH]1)Nc1cccc(-c2ccc(-c3nc4ccc(F)cc4[nH]3)s2)c1` the figure was 0.66 µM; with `Cc1nc2c(-n3cc(Cn4ccnc4)c4ccccc43)ncnc2n1-c1ccc(Cl)cc1Cl`, 0.99 µM.
Turning to `Cc1cc(NN=Cc2cccc([N+](=O)[O-])c2)c2ccccc2n1`, the IC50 was found to be 0.73 µM.
`O=C(N[C@H]1CCN(Cc2ccc(OCCN3CCNCC3)c(Br)c2)C1)c1ccc(Cl)c(Cl)c1` came in with an IC50 of 0.48 µM.
`O=C(NCc1ccc(F)cc1)c1ccc(N2CCN(c3ccncc3)CC2)cn1` came in with an IC50 of 0.89 µM.
Compound `O=C(c1ccccc1)[C@H]1C[C@@H]1CN1CC=C(c2c[nH]c3ccccc23)CC1` came in with an IC50 of 0.53 µM.
The value for `COc1ccc2nccc([C@@H](O)CN3CCC(NCc4cc5ccccc5cn4)CC3)c2n1` was 0.92 µM.
With `Cc1ncccc1C(=O)Nc1ccc(-c2cccc(-c3nc4c(C)cccc4[nH]3)c2)cc1` the figure was 0.73 µM; with `c1cc(-c2ccc(CN3CCCCC3)cc2)cc(-c2nc3ccccc3[nH]2)c1`, 0.58 µM; with `Cc1ccccc1C1CCN(C2CCC(NC(=O)c3csc(-c4cccc(Cl)c4)n3)CC2)CC1` (configuration not stated), 1.15 µM.

Source of the values: PubChem BioAssay AID2305 (GlaxoSmithKline (GSK), 2010).
